Blank lines part the entries; values can stand above or below the molecule they belong to. Active and inactive are the calls of the source. The rule behind the calls is not given here.
Key:
[1] = tested on: Mus musculus; assay: In vivo receptor occupancy at muscarinic M1 receptor in myelin oligodendrocyte glycoprotein (MOG)-induced experimental autoimmune encephalitis C57BL/6 mouse model assessed as decrease in occupancy at 30 mg/kg, po measured up to 8 hrs; type: functional, organism-based; details: time hrs <=8
[2] = Drug uptake in rat brain at 10 mg/kg, po measured after 2 hrs by LC-MS/MS; type: ADME, organism-based; details: read-out: Drug uptake
[3] = Fraction unbound in rat brain at 30 mg/kg, po measured after 24 hrs; type: ADME, organism-based; details: in vivo
[4] = Fraction unbound in rat plasma at 30 mg/kg, po measured after 24 hrs; type: ADME, organism-based; details: in vivo
[5] = Fraction unbound in rat plasma at 30 mg/kg, po measured after 8 hrs; type: ADME, organism-based; details: in vivo
[6] = Unbound fraction in rat brain at 10 mg/kg, po measured after 2 hrs by LC-MS/MS; type: ADME, organism-based; details: in vivo
[7] = In vivo receptor occupancy at muscarinic M1 receptor in myelin oligodendrocyte glycoprotein (MOG)-induced experimental autoimmune encephalitis C57BL/6 mouse model assessed as decrease in occupancy at 30 mg/kg, po measured after 24 hrs; type: functional; set-up: Activity: scale not given: the % may be the effect or the level left
[8] = Oral bioavailability in rat at 10 mg/kg; type: ADME, organism-based; details: in vivo
[9] = AUC in rat at 10 mg/kg, po; type: ADME, organism-based; set-up: dose 10 mg/kg; details: in vivo
[10] = AUC in rat at 2 mg/kg, iv; type: ADME, organism-based; set-up: dose 2 mg/kg; details: in vivo
[11] = Half life in rat at 2 mg/kg, iv; type: ADME, organism-based; details: in vivo
[12] = Unbound clearance in rat at 10 mg/kg, po; type: ADME, organism-based; details: in vivo
[13] = Clearance in rat at 2 mg/kg, iv; type: ADME, organism-based; details: in vivo
[14] = target: Cytochrome P450 3A4 (Homo sapiens, UniProt P08684); assay: Inhibition of human CYP3A4 in pooled human liver microsomes using midazolam as substrate incubated for 5 mins by LC-MS/MS; type: ADME
[15] = target: Cytochrome P450 2D6 (Homo sapiens, UniProt P10635); assay: Inhibition of human CYP2D6 in pooled human liver microsomes using dextromethorphan as substrate incubated for 20 mins by LC-MS/MS; type: ADME
[16] = target: Cytochrome P450 2C9 (Homo sapiens, UniProt P11712); assay: Inhibition of human CYP2C9 in pooled human liver microsomes using diclofenac as substrate incubated for 5 mins by LC-MS/MS; type: ADME
[17] = Plasma protein binding in mouse assessed as unbound fraction; type: ADME, cell-free
[18] = Plasma protein binding in rat assessed as unbound fraction; type: ADME, cell-free
[19] = Metabolic stability in mouse liver microsomes assessed as intrinsic clearance at 1 uM measured up to 60 mins by LC-MS/MS analysis; type: ADME, Microsome; details: read-out: CLH
[20] = Metabolic stability in rat liver microsomes assessed as intrinsic clearance at 1 uM measured up to 60 mins by LC-MS/MS analysis; type: ADME, Microsome; details: read-out: CLH
[21] = target: T1, Muscarinic acetylcholine receptor M3 (Homo sapiens, UniProt P20309); assay: Displacement of [3H]NMS from human recombinant muscarinic receptor M3 expressed in CHO-K1 cell membranes assessed as inhibition constant incubated for 1 hr by Radioligand binding assay
[22] = target: Muscarinic acetylcholine receptor M2 (Homo sapiens, UniProt P08172); assay: Displacement of [3H]NMS from human recombinant muscarinic receptor M2 expressed in CHO-K1 cell membranes assessed as inhibition constant incubated for 1 hr by Radioligand binding assay
[23] = target: T2, Muscarinic acetylcholine receptor M1 (Homo sapiens, UniProt P11229); assay: Displacement of [3H]NMS from human recombinant muscarinic receptor M1 expressed in CHO-K1 cell membranes assessed as inhibition constant incubated for 1 hr by Radioligand binding assay
T2 sequence (P11229 whole entry): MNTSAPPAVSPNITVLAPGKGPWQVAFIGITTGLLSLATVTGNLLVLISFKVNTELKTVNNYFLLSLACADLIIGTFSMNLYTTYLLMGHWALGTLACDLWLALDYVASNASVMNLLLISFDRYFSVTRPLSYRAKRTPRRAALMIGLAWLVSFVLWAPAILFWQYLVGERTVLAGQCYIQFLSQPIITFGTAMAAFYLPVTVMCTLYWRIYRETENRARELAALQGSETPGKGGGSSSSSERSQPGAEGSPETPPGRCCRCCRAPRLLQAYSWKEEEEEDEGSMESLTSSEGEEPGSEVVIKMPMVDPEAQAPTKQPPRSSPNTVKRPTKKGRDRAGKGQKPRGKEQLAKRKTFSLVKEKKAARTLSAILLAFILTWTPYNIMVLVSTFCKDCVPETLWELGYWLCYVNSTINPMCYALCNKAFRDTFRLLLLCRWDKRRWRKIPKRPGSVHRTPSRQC

[24] = target: T1, Muscarinic acetylcholine receptor M3; assay: Antagonist activity at human recombinant muscarinic receptor M3 expressed in CHO-K1 cells assessed as EC80 acetylcholine-induced calcium flux incubated for 30 mins; type: functional, cell-based
[25] = target: T3, Muscarinic acetylcholine receptor M2 (Homo sapiens, UniProt P08172); assay: Antagonist activity at human recombinant muscarinic receptor M2 expressed in CHO-K1 cells assessed as EC80 acetylcholine-induced calcium flux incubated for 30 mins; type: functional, cell-based
T3 sequence (P08172 whole entry): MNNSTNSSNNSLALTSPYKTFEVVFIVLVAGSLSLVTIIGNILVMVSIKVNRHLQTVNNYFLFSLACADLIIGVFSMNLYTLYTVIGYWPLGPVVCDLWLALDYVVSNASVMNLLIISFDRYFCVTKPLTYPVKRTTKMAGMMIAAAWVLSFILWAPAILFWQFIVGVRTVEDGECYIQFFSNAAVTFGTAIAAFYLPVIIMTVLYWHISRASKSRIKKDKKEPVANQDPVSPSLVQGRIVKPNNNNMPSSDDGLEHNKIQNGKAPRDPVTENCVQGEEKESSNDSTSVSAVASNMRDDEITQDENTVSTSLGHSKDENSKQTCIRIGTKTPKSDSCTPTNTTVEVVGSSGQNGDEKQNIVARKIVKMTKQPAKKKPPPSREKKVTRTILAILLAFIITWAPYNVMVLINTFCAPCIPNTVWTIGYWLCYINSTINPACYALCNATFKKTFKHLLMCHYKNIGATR

[26] = target: T2, Muscarinic acetylcholine receptor M1; assay: Antagonist activity at human recombinant muscarinic receptor M1 expressed in CHO-K1 cells assessed as EC80 acetylcholine-induced calcium flux incubated for 30 mins; type: functional, cell-based
[27] = Apparant permeability across apical to basolateral side in dog MDCK-MDR1 cells; type: ADME, cell-based, Canis lupus familiaris
[28] = Metabolic stability in human liver microsomes assessed as intrinsic clearance at 1 uM measured up to 60 mins by LC-MS/MS analysis; type: ADME, Microsome; details: read-out: CLH
[29] = Metabolic stability in rat liver microsomes assessed as parent compound remaining at 1 uM measured at 15 mins by LC-MS/MS analysis; type: ADME, Microsome; details: read-out: Stabilty
[30] = target: Voltage-gated inwardly rectifying potassium channel KCNH2 (Homo sapiens, UniProt Q12809); assay: Inhibition of human ERG expressed in HEK293 cells at 3 uM by patch clamp assay; type: cell-based; details: hek293, 3 µM
[31] = Brain to plasma permeability coefficient, Kp of the compound in rat at 10 mg/kg, po measured after 2 hrs by LC-MS/MS; type: ADME, organism-based; details: read-out: K(p,uu,brain)
[32] = Fraction unbound in rat plasma at 10 mg/kg, po measured by LC-MS/MS; type: ADME, organism-based
[33] = Plasma concentration in rat at 10 mg/kg, po measured after 2 hrs by LC-MS/MS; type: ADME, organism-based
[34] = Fraction unbound rat plasma at 10 mg/kg, po measured after 2 hrs by LC-MS/MS; type: ADME, organism-based; details: in vivo

T1 sequence (P20309 whole entry): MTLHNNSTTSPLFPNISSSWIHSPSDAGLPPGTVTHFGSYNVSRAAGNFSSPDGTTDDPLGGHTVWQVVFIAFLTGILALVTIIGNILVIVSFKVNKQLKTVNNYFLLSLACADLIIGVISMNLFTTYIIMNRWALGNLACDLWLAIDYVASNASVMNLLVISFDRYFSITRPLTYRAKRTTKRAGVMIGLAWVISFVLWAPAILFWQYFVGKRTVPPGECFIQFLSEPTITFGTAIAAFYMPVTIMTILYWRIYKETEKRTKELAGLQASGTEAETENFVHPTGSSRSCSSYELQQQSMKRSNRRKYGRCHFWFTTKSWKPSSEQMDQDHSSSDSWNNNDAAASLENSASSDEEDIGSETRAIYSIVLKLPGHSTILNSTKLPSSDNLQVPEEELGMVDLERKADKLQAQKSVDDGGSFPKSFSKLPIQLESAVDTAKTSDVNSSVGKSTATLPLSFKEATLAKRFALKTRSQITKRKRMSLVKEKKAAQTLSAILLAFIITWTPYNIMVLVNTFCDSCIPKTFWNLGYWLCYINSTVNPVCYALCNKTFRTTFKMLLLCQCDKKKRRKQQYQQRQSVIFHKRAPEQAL
Chain of Cytochrome P450 2C9 (P11712 whole entry): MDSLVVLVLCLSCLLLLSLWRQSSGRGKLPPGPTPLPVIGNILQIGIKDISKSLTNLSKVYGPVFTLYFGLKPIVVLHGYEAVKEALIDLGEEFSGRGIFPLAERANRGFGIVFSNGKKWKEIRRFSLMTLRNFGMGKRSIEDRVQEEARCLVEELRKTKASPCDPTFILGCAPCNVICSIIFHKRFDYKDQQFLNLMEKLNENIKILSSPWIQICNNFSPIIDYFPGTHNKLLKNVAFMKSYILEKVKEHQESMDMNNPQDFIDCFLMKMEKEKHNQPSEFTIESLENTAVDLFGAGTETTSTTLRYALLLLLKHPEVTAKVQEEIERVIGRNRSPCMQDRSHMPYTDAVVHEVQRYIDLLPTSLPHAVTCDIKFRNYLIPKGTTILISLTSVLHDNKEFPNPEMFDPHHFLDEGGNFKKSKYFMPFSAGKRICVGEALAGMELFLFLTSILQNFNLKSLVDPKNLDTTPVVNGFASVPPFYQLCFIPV
Chain of Voltage-gated inwardly rectifying potassium channel KCNH2 (Q12809 whole entry): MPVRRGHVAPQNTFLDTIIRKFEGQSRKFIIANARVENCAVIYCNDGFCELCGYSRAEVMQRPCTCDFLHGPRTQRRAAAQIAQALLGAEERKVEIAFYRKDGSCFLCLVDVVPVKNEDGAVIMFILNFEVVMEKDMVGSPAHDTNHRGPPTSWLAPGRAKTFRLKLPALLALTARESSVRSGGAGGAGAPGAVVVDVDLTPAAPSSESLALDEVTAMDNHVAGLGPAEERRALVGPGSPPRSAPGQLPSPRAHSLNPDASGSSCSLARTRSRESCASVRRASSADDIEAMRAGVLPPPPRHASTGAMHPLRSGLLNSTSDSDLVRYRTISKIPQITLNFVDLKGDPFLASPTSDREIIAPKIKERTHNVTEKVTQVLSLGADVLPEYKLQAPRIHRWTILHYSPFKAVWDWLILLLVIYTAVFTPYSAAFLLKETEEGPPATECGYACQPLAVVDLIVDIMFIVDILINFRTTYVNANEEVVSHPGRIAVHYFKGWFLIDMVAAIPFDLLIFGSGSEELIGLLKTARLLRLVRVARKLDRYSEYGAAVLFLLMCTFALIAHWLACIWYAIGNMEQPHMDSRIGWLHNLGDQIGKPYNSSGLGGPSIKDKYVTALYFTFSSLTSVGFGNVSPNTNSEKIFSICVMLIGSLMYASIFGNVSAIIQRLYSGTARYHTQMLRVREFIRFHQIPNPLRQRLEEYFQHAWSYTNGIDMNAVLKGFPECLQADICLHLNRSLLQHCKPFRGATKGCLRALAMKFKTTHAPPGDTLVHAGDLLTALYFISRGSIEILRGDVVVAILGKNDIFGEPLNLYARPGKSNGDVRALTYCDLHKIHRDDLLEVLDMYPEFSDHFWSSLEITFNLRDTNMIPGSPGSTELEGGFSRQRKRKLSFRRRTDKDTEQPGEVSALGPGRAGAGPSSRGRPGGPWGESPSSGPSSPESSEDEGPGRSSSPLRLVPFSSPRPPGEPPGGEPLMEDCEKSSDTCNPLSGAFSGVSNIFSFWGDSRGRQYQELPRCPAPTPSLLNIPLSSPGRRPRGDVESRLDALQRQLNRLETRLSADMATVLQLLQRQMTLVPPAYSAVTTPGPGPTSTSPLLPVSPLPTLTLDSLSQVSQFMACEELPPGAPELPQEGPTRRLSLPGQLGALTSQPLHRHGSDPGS
Chain of Cytochrome P450 3A4 (P08684 whole entry): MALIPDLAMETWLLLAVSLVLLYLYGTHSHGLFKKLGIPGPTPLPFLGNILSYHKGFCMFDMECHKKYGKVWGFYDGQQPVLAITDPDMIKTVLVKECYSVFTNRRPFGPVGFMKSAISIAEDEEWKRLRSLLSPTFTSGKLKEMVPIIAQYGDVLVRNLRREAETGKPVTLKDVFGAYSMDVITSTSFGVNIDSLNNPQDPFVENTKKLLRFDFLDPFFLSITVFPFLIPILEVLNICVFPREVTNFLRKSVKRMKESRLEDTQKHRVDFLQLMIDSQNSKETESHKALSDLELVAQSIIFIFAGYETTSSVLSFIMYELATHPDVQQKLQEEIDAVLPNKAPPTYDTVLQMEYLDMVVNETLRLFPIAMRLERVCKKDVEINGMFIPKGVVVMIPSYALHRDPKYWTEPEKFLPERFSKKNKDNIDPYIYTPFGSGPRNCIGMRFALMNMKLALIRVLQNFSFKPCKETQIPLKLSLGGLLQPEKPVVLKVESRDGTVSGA
Chain of Cytochrome P450 2D6 (P10635 whole entry): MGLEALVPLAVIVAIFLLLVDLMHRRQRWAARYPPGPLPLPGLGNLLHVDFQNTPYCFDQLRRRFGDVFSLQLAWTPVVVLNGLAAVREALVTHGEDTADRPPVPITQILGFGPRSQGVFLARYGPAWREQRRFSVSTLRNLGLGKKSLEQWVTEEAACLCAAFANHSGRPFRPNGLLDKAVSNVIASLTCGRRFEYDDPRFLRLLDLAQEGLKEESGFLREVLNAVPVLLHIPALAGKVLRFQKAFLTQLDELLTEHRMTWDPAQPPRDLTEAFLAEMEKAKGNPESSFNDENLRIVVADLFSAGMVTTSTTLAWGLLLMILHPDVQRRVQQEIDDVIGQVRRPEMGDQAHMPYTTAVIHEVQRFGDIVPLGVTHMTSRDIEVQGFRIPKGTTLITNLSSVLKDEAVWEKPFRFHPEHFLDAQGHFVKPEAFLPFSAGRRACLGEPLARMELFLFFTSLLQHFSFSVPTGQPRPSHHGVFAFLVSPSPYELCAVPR

Compound: N#Cc1ccc(N2C3CCC2CN(C(=O)CCS(=O)(=O)c2cccc4ncsc24)C3)nc1
Occ [1]: Active | concentration at 2 h [2]: 26 nM | Drug uptake(free) [3]: 0.12 nM | Cp(f) [4]: 2.9 nM | Cp(f) [5]: 117 nM | Drug uptake(free) [6]: 3.4 nM | Activity [7]: 40% | bioavailability [8]: 4.5% | AUC [9]: 21 ng·h/mL | AUC [10]: 100 ng·h/mL | half-life [11]: 54 min | CL free [12]: 273 mL/min/kg | clearance [13]: 56 mL/min/kg | IC50 [14]: > 10000 nM | IC50 [15]: > 10000 nM | IC50 [16]: > 10000 nM | fraction unbound [17]: 0.18 | fraction unbound [18]: 0.2 | microsomal CLint at 1 µM [19]: 21 µL/min/mg | microsomal CLint at 1 µM [20]: 23 µL/min/mg | Ki [21]: 0.84 nM | Ki [22]: 19 nM | Ki [23]: 0.14 nM | IC50 ([24]; read-out: IC50): 55 nM | IC50 ([25]; read-out: IC50): 200 nM | IC50 ([26]; read-out: IC50): 1.8 nM | Papp A→B [27]: 7.7 ×10⁻⁶ cm/s | microsomal CLint at 1 µM [28]: 42 µL/min/mg

Compound: Cc1cc(F)cnc1N1CCN(C(=O)CCCc2cccc3ncc(CO)cc23)[C@@H](C)C1
remaining at 0.25 h, 1 µM [29]: 1% | IC50 ([26]; read-out: IC50): > 170 nM | IC50 ([26]; read-out: pIC50 (converted)): 158 nM

Compound: Cc1cc(F)cnc1N1CCN(C(=O)COCc2cccc3ncsc23)[C@@H](C)C1
IC50 ([26]; read-out: IC50): 3600 nM

Compound: N#Cc1ccc(N2C3COCC2CN(C(=O)CCS(=O)(=O)c2cccc4ncsc24)C3)nc1
IC50 ([26]; read-out: IC50): 31 nM

Compound: Cc1cc(F)cnc1N1CCN(C(=O)CCCc2cccc3ncccc23)[C@H](C)C1
IC50 ([24]; read-out: pIC50 (converted)): 501 nM | IC50 ([25]; read-out: pIC50 (converted)): 631 nM

Compound: N#Cc1cc(N2CCN(C(=O)CCCc3cccc4ncccc34)CC2)ccn1
IC50 ([26]; read-out: IC50): 65 nM

Compound: Cc1cc(F)cnc1N1CCN(C(=O)CCCS(=O)(=O)c2cccc3ncsc23)[C@@H](C)C1
IC50 ([26]; read-out: IC50): 1900 nM

Compound: N#Cc1cnccc1N1CCN(C(=O)CCCc2cccc3ncccc23)CC1
IC50 ([26]; read-out: IC50): 1100 nM

Compound: COc1cc(N2CCN(C(=O)CCCc3cccc4ncccc34)CC2)ccn1
IC50 ([26]; read-out: IC50): 300 nM

Compound: Cc1cc(F)cnc1N1CCN(C(=O)CCCc2cccc3ncsc23)[C@@H](C)C1
remaining at 0.25 h, 1 µM [29]: 5.3% | IC50 ([26]; read-out: IC50): 24 nM

Compound: Cc1cc(F)cnc1N1CCN(C(=O)CCCc2cccc3ncccc23)CC1
IC50 ([26]; read-out: IC50): 69 nM

Compound: O=C(CCNS(=O)(=O)c1cccc2ncccc12)N1CCN(c2ccncc2)CC1
IC50 ([26]; read-out: IC50): 130 nM

Compound: Cc1ccncc1N1CCN(C(=O)CCCc2cccc3ncccc23)[C@H](C)C1
IC50 ([26]; read-out: IC50): 20 nM

Compound: O=C(CCCc1cccc2ncccc12)N1CC2CC1CN2c1ccc(F)cn1 (racemic)
IC50 ([26]; read-out: IC50): 950 nM

The next lines start with results.

IC50 ([26]; read-out: IC50): 4100 nM
Compound: CC1(C)CN(c2ccc(C#N)cn2)CCN1C(=O)CCS(=O)(=O)c1cccc2ncsc12

IC50 ([26]; read-out: IC50): 25 nM
Compound: N#Cc1ccc(N2CC3CCC2CN3C(=O)CCS(=O)(=O)c2cccc3ncsc23)nc1 (racemic)

remaining at 0.25 h, 1 µM [29]: 41% | IC50 ([26]; read-out: IC50): 32 nM
Compound: O=C(CCS(=O)(=O)c1cccc2ncsc12)N1CCN(c2ccc(C(F)(F)F)cn2)CC1

remaining at 0.25 h, 1 µM [29]: 29% | IC50 ([26]; read-out: IC50): 380 nM
Compound: O=C(CCS(=O)(=O)c1cccc2ncsc12)N1CCN(c2ccncc2F)CC1

Kp uu at 2 h [31]: 0.17 | fraction unbound [32]: 0.15 | concentration at 2 h [33]: 89 nM | remaining at 0.25 h, 1 µM [29]: 59% | IC50 ([26]; read-out: IC50): 5.8 nM | Cp(f) [34]: 13 nM
Compound: N#Cc1ccc(N2CCN(C(=O)CCS(=O)(=O)c3cccc4ncsc34)CC2)nc1
Occ [7]: 50% | inhibition (INH) [30]: 69%

IC50 ([26]; read-out: IC50): 5.8 nM
Compound: CC1CN(C(=O)CCS(=O)(=O)c2cccc3ncsc23)CCN1c1ccc(C#N)cn1 (racemic)
